Nine molecules from ChEMBL document CHEMBL4184308, “Melanogenesis inhibitory pregnane glycosides from Cynanchum atratum” (Bioorg Med Chem Lett, 2018) can be followed below.

Calls of active or inactive are those of the source. The calls are words filed in the database; no cut-off is given here.

The test system of one test is B16. As to the kind of experiment: Inhibition of melanin production in alpha-MSH-stimulated mouse B16 cells incubated for 24 hrs followed by alpha-MSH stimulation for 72 hrs in presence of compound. It is filed as functional, cell-based.
Consider `CO[C@H]1O[C@@]2(C)OC[C@H]3OC(=O)[C@@H]4CC=C5C[C@@H](O[C@@H]6O[C@H](C)[C@@H](O)[C@H](OC)[C@H]6O)CC[C@]5(C)[C@H]4C/C=C/1[C@H]32`, for which the IC50 – broadly, the midpoint of a concentration-inhibition curve – amounted to 41 µM.
`CO[C@H]1C[C@H](O[C@@H]2[C@H](C)O[C@@H](O[C@H]3[C@@H](OC)C[C@H](O[C@@H]4CC5=CC[C@H]6C(=O)[C@@](C)(C7=CC(=O)O[C@@H]7C)CC[C@@H]6[C@@]5(C)C[C@H]4O)O[C@@H]3C)C[C@@H]2OC)O[C@H](C)[C@H]1O`: the IC50 stood at 33 µM and the inhibition entry is “Dose-dependent effect”.
As to `CO[C@H]1C[C@H](O[C@@H]2CC3=CC[C@H]4C(=O)[C@@](C)(C5=CC(=O)O[C@H]5C)CC[C@@H]4[C@@]3(C)C[C@H]2O)O[C@H](C)[C@H]1O`, the IC50 was over 50 µM.
Take `CO[C@H]1[C@@H](O)[C@H](O[C@H]2CC[C@@]3(C)C(=CC[C@H]4C(=O)O[C@@H]5CO[C@]6(C)OC=C(CC[C@@H]43)[C@H]56)C2)O[C@H](C)[C@H]1O[C@H]1C[C@H](OC)[C@H](O[C@H]2C[C@H](OC)[C@H](O)[C@@H](C)O2)[C@H](C)O1`: the IC50 amounted to 4 µM and the inhibition entry was “Dose-dependent effect”.
Turning to `CO[C@@H]1[C@@H](O)[C@H](O[C@H]2CC[C@@]3(C)C(=CC[C@H]4C(=O)O[C@@H]5CO[C@]6(C)OC(=O)/C(=C/C[C@@H]43)[C@H]56)C2)O[C@H](C)[C@H]1O`, the IC50 is over 50 µM.
For the molecule `CO[C@H]1C[C@H](O[C@@H]2[C@H](C)O[C@@H](O[C@H]3[C@@H](OC)C[C@H](O[C@@H]4CC5=CC[C@H]6C(=O)[C@@](C)(C7=CC(=O)O[C@H]7C)CC[C@@H]6[C@@]5(C)C[C@H]4O)O[C@@H]3C)C[C@@H]2OC)O[C@H](C)[C@H]1O`, the IC50 came to 21 µM and the inhibition entry was “Dose-dependent effect”.
The like results for `CO[C@H]1[C@@H](O)[C@H](O[C@H]2CC[C@@]3(C)C(=CC[C@H]4C(=O)O[C@@H]5CO[C@]6(C)OC=C(CC[C@@H]43)[C@H]56)C2)O[C@H](C)[C@H]1O[C@H]1C[C@H](OC)[C@H](O)[C@H](C)O1` were, in that order, 19 µM and “Dose-dependent effect”.

The target in the next test is T1, Tyrosinase (Mus musculus) (UniProt P11344).
T1 sequence (whole entry): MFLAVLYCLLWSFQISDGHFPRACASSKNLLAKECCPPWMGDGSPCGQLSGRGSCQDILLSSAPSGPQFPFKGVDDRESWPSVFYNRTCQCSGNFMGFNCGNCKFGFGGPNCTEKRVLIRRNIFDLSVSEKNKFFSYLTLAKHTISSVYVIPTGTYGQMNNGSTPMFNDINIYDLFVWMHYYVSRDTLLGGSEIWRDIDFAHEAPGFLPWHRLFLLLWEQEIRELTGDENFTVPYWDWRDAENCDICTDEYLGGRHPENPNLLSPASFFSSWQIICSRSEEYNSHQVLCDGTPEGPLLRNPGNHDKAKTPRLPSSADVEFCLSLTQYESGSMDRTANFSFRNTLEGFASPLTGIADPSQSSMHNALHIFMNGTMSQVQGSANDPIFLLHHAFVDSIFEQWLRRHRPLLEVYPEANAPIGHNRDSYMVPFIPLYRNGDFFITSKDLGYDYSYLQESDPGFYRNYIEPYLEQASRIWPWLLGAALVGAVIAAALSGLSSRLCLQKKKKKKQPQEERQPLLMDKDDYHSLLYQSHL
Briefly: Inhibition of mouse B16 cells derived tyrosinase at 30 uM.
In the case of `CO[C@H]1C[C@H](O[C@@H]2[C@H](C)O[C@@H](O[C@H]3[C@@H](OC)C[C@H](O[C@@H]4CC5=CC[C@H]6C(=O)[C@@](C)(C7=CC(=O)O[C@H]7C)CC[C@@H]6[C@@]5(C)C[C@H]4O)O[C@@H]3C)C[C@@H]2OC)O[C@H](C)[C@H]1O`, the inhibition entry is “inactive”.

Another test addresses T1, Tyrosinase (Mus musculus). Briefly: Inhibition of mouse tyrosinase.
Take `CC(=O)c1cc(O)ccc1O`: the inhibition entry is “Active”.
As to `CC(=O)c1c(O)cccc1O`, the inhibition result is “Active”.
